This is an account of results in the NIST ThermoML archive (doi:10.1021/je3001377).

Numbers after ± are expanded uncertainties.

Broadly, the viscosity is the internal friction of a fluid under shear.

For this series the following is noted: 298.15 K; 101.33 kPa; Liquid; Cone and plate viscometry.
In the case of `CCCCn1cc[n+](CCCC)c1.CS(=O)(=O)[O-]` [1,3-dibutyl-1H-imidazolium methanesulfonate], the viscosity came to 31.9 ± 2.4 mPa·s.

Regarding `CS(=O)(=O)[O-].Cn1cc[n+](C)c1` [1,3-dimethyl-1H-imidazolium methanesulfonate], the viscosity is recorded as 32.9 ± 1.1 mPa·s.

For the compound `CCCCn1cc[n+](C)c1.CS(=O)(=O)[O-]` [1-butyl-3-methylimidazolium methanesulfonate], the viscosity worked out at 111 ± 14 mPa·s.

Take `CCn1cc[n+](C)c1.CS(=O)(=O)[O-]` [1-ethyl-3-methylimidazolium methanesulfonate]: the viscosity is on record as 70.5 ± 2.7 mPa·s.
